Experimental data from patent US20010041801A1, “Water soluble fullerenes with antiviral activity” (The Regents of the University of California, priority 1994, published 2001).
Like-named read-outs stand apart in the source and are kept apart here.

What was measured:
Solubility in water = settings: physiologic pH, generally between pH 6 and 8
HIV-1 LAI = assay: Antiviral activity in acutely infected human PBMC, virus RT level; format: cell-based; settings: acutely infected, virus RT level on day 6, read-out: Antiviral Activity (EC50) in PBMC infected with HIVLAI
Procedure: (§1) Compound 2c was evaluated for antiviral activity in cells acutely and chronically infected with human immunodeficiency virus (HIV). Reverse transcriptase (RT) levels associated with virus were determined with virus concentrated from cell culture supernatants by high-speed centrifugation to reduce the chances of drug carryover in the enzyme assay using the method described in R. F. Schinazi, et al., Antimicrob. Agents Chemother., 36:2423-2431, 1992.

HIV-2ROD = assay: as above; format: cell-based; settings: acutely infected, virus RT level on day 6, read-out: Antiviral Activity (EC50) in PBMC infected with HIV-2ROD
Procedure: as §1

PBMC = assay: Cytotoxicity in uninfected PBMC; format: cell-based, human; settings: thymidine uptake day 2 and cell counts day 6
Vero cells = assay: Cytotoxicity in Vero cells; format: cell-based; settings: day 3
CEM cells = assay: Cytotoxicity in CEM cells; format: cell-based; settings: cell counts on day 6
HIV-1 RT = HIV-1 RT (Human immunodeficiency virus type 1 group M subtype B, UniProt P04585); assay: Inhibition of recombinant p66/51 HIV-1 RT, poly(rA)n.oligo(T)12-18 template-primer; format: biochemical; settings: cell-free; AZT-5′-triphosphate used for AZT; read-out: IC50 Polymerases: HIV-1 RT
Procedure: The compound was also evaluated for its inhibitory effect on recombinant p66/51 HIV-1 RT by using poly(rA)n.oligo(T)12-18 as the template-primer as described in Schinazi, et al. (1992, supra). Compound 2c was active against this enzyme, with a median inhibitory concentration (1C50) of 4.6 μM. This value was of the same order of magnitude as that noted for the antiviral assays (TABLE 3). […] AZT-5′ triphosphate and phosphonoformate (PFA), used as positive controls, were effective and selective against HIV-1 RT.

DNA polymerase α = DNA polymerase α (Homo sapiens, UniProt P09884); assay: Inhibition of cellular DNA polymerase α, cell-free; format: biochemical; settings: AZT-5′-triphosphate used for AZT, read-out: IC50 Polymerases: DNA Polymerase α
HIV-1III = assay: Antiviral activity in chronically infected H9 cells, virus RT level; format: cell-based
Procedure: as §1

[1] = Cytotoxicity in uninfected PBMC; format: cell-based, human; settings: human, uninfected PBMC; thymidine uptake day 2 and cell counts day 6
Cytotoxicity in H9 cells = format: cell-based, human; settings: human, H9 cells; cell counts on day 6
[2] = Cytotoxicity in Vero cells; format: cell-based; settings: African green monkey, Vero cells; day 3
[3] = Cytotoxicity in CEM cells; format: cell-based; settings: human, CEM cells; cell counts on day 6
HIV-1 HI 12.2 = assay: Susceptibility of pretherapy AZT-susceptible isolate in acutely infected PBMC; format: cell-based; settings: Human immunodeficiency virus 1, PBMC, read-out: EC50 against pretherapy isolate
From the text: (§2) The availability of AZT-resistant and -susceptible viruses allowed us to evaluate the compounds of this invention for their susceptibilities to these viruses in acutely infected PBMC in two experiments. […] In the same assay, the EC50 for TIBO [(+)-(5s)-4,5,6,7-tetrahydro-5methyl-6-(3-methyl-2-butenyl)imidazo(4,5,1-jk)(1,4)benzodiazepin-2(1 H)-thione] R82150 increased >500-fold (data not shown).

HIV-1G910-6 = assay: microbe, parasite or virus in culture; format: cell-based
From the text: as §2

[4] = test system: nevirapine (BI-RG587)-resistant HIV-1; assay: Susceptibility of nevirapine-resistant HIV-1; format: cell-based
HIV-1 protease (HIVP) = target: T1, HIV-1 protease (HIVP) (Human immunodeficiency virus type 1 group M subtype B, UniProt P04585); assay: Inhibition of HIV-1 protease, HPLC assay with kinetic analysis; format: biochemical; settings: 50 mM NaAc pH 5.5, 1.0 M NaCl; 5 min preincubation; fit to competitive inhibition; read-out: Ki
T1 construct: HIV produces a small, dimeric aspartyl protease which specifically cleaves the polyprotein precursors
Procedure: The ability of compound 2c to inhibit the HIVP was assayed with an HPLC method as described in R. L DesJarlais, et al., Proc. Natl. Acad. Sci U.S.A., 87:6644-6648, 1990. […] Assays were performed in buffer containing 50 mM NaAc pH 5.5, 1.0 M NaCl, 5% glycerol, 1% DMSO, and 2 mM EDTA. Inhibitor was preincubated with ≈0.05 μg of enzyme for 5 minutes at which time the reaction was initiated by addition of substrate. The reaction was quenched at <15% product formation by the addition of 15 μL of 10% TFA. The cleavage products of the substrate peptide H-Lys-Ala-Arg-Val-Tyr-p-nitro-Phe-Glu-Ala-Ile-NH2 (made by Bachem, Philadelphia, Pa.) were assayed by HPLC using a 10-40% (acetonitrile, 0.1% TFA): (water, 0.1% TFA) gradient over 30 minutes at 1 mL/minute. Product was quantitated by integration of peak areas followed by comparison to product standard curves.
Determination of kinetic constants was done with the program KinetAsyst (IntelliKinetics) by fitting of the data to the equation […]] which describes competitive inhibition.

DNA polymerase α, sequence (P09884 whole entry): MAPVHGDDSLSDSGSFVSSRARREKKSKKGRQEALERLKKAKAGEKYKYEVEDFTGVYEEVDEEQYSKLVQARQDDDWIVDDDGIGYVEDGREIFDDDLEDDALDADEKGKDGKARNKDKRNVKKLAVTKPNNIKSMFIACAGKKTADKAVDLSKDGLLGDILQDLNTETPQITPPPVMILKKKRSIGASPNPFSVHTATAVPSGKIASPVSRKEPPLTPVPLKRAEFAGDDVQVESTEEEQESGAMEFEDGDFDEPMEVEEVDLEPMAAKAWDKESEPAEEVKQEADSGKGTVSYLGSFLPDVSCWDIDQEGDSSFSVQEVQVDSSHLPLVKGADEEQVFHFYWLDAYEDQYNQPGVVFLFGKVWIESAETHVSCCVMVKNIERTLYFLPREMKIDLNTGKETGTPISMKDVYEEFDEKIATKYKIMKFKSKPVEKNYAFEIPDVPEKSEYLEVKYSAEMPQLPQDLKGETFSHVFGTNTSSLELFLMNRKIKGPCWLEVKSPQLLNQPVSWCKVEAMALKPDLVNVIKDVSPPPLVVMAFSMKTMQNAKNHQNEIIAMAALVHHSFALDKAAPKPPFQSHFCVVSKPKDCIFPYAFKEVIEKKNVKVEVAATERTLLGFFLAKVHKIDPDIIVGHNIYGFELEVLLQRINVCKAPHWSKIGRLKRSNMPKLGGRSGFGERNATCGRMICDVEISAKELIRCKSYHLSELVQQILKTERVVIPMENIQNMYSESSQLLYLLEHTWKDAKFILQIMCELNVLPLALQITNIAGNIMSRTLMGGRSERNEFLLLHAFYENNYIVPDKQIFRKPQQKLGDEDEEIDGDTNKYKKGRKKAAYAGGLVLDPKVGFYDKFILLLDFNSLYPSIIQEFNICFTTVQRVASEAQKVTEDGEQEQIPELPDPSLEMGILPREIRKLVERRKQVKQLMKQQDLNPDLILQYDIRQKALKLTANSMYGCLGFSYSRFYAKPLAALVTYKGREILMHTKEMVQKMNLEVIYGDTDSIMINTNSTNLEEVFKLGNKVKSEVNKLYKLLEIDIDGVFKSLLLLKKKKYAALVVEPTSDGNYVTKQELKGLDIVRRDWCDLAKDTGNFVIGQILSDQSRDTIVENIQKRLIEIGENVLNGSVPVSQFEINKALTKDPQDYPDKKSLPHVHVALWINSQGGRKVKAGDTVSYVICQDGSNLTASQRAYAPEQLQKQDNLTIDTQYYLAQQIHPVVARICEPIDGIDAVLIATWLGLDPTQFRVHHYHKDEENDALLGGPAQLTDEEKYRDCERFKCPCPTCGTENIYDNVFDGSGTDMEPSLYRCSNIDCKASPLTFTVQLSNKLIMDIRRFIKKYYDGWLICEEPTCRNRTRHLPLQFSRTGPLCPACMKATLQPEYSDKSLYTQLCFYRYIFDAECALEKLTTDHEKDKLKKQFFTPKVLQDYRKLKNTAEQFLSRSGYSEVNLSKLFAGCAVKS
DNA polymerase α, sequence (Q14181 whole entry partner): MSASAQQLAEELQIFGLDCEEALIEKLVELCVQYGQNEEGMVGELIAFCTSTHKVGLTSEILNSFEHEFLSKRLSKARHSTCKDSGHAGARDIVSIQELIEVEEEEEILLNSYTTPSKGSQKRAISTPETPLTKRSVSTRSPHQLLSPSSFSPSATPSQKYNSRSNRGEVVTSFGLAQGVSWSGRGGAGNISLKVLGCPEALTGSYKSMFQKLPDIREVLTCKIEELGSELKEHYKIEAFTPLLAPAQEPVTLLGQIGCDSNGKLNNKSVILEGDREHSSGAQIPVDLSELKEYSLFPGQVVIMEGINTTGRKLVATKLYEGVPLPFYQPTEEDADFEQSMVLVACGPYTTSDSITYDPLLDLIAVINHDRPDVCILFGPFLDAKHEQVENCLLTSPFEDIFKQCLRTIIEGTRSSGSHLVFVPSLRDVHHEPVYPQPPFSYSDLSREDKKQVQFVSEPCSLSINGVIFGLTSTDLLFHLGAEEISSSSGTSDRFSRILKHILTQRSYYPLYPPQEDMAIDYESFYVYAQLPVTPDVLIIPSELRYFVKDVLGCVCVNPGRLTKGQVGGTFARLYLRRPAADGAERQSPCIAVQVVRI
DNA polymerase α, sequence (P49642 whole entry partner): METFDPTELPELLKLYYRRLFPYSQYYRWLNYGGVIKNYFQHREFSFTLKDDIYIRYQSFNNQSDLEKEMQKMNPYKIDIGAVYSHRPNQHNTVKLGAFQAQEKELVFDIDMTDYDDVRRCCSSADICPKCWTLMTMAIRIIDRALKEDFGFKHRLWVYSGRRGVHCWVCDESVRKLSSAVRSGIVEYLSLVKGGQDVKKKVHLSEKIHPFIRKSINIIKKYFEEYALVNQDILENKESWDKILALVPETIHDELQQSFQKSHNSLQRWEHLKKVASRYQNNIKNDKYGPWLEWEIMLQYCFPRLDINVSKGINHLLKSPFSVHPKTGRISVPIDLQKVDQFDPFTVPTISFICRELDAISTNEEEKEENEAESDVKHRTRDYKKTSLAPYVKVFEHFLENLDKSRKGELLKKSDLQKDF
DNA polymerase α, sequence (P49643 whole entry partner): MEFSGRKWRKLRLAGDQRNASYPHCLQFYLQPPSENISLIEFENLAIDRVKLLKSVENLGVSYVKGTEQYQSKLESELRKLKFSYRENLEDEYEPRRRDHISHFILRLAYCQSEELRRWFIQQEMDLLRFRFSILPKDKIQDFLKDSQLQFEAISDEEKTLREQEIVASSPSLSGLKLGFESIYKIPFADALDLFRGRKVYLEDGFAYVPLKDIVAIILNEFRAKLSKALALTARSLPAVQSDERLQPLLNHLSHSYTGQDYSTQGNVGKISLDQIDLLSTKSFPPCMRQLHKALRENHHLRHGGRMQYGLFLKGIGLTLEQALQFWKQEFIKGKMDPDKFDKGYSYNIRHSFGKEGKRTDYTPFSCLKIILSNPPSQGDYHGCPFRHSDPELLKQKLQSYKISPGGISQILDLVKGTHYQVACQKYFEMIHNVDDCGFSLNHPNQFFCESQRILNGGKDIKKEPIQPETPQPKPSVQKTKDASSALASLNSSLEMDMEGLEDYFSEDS

## 4,4′-Bis(2-aminoethyl)diphenyl C61 [hydrochloride salt of compound 2b]
Solubility in water
  water solubility: not to be soluble

## O=C(O)P(=O)(O)O [PFA, phosphonoformate, reference compound]
HIV-1 LAI
  EC50: 430 nM
HIV-2ROD
  EC50: 440 nM
PBMC
  IC50: > 640000 nM
Vero cells
  IC50: > 100000 nM
CEM cells
  IC50: > 100000 nM
HIV-1 RT
  IC50: 320 nM
DNA polymerase α
  IC50: > 100000 nM

## Cc1cn([C@H]2C[C@H](N=[N+]=[N-])[C@@H](CO)O2)c(=O)[nH]c1=O [AZT, 3′-Azido-3′-deoxythymidine, reference compound]
HIV-1 LAI; Human immunodeficiency virus 1, PBMC, 144 h
  EC50: 4 nM
HIV-2ROD; Human immunodeficiency virus 2, PBMC, 144 h
  EC50: 3 nM
HIV-1III
  effect in chronically infected H9 cells: no effect
HIV-1III; Human immunodeficiency virus 1, H9, 144 h, chronically infected, virus RT level after 6 days of treatment, read-out: Antiviral Activity (EC50) in H9 cells infected with HIV-1III
  EC50: > 100000 nM
[1]
  IC50: > 100000 nM
Cytotoxicity in H9 cells
  IC50 at 6 days: 60000 nM
[2]
  IC50 at 3 days: 23000 nM
[3]
  IC50 at 6 days: 13000 nM
HIV-1 RT
  IC50: 40 nM
DNA polymerase α
  IC50: > 100000 nM
HIV-1 HI 12.2
  EC50: < 1 nM
HIV-1G910-6; Human immunodeficiency virus 1, PBMC, read-out: EC50 against AZT-resistant HIV-1, acutely infected PBMC / lymphocytes
  EC50: 180 nM
HIV-1G910-6; virus pair HIV-1 HI 12.2 / HIV-1G910-6
  increase of EC50, AZT-resistant vs pretherapy virus: more than 180 fold

## CC(C)=CCN1Cc2cccc3[nH]c(=S)n(c23)C[C@@H]1C [TIBO R82150, (+)-(5s)-4,5,6,7-tetrahydro-5methyl-6-(3-methyl-2-butenyl)imidazo(4,5,1-jk)(1,4)benzodiazepin-2(1 H)-thione, reference compound]
[4]
  increase in resistance, nevirapine-resistant vs -susceptible HIV-1: > 500 fold

## NCCc1ccc(C2(c3ccc(CCN)cc3)C34c5c6c7c8c9c%10c(c%11c%12c3c3c5c5c%13c6c6c7c7c9c9c%14c%10c%10c%11c%11c%12c%12c3c3c5c5c%13c%13c6c6c7c9c7c9c%14c%10c%10c%11c%11c%12c3c3c5c5c%13c6c7c6c9c%10c%11c3c56)C824)cc1 [Compound 2b, 4,4′-Bis(2-aminoethyl)diphenyl C61]
HIV-1 protease (HIVP)
  Ki: ~2000 nM
